Values quoted from earlier work in publication PMC12057046, “Elucidation of short linear motif-based interactions of the MIT and rhodanese domains of the ubiquitin-specific protease 8” (Biology Direct, 2025).

System: USP8 MIT domain
Conditions: 187-ELSQRLARLR-196; ref [17], [38]; cited from earlier work
Description: To further elucidate the peptide binding determinants of the interactions with USP8 MIT domain we performed a deep mutational scanning (DMS) analysis of two model peptides: one peptide from melanophilin (MLPH481 − 496: […]) which served as a representative of the MIM1-like motif and the EFCAB12 peptide (EFCAB12_1 − 16: […]), which shares some sequence similarity with the DBP116 − 131 peptide. We designed a library of peptides in which each position of the two parental peptides were mutated to all other amino acids (except cysteine) following a classic saturation mutag ...

Sequence: ELSQRLARLR [CHMP1B]
- binding to USP8 MIT: USP8 MIT binding peptides
